# Results reported in ChEMBL document CHEMBL1201862, “PubChem BioAssay data set” (2004).
# Active and inactive are the calls of the source.
# Assays:
# [1] = Luminescence Cell-Based Dose Confirmation HTS to Identify Inhibitors of Platelet Dense Granule Release. [Related pubchem assays: 1663 (Primary HTS), 1678 (Summary of Project)]; type: functional
# [2] = target: Luciferin 4-monooxygenase (Photinus pyralis, UniProt P08659); experiment: inhibition of purified Photinus pyralis luciferase – biochemical, luminescence, dose response (AID 1891)
# Ephrin type-A receptor 4 = Ephrin type-A receptor 4 (Mus musculus, UniProt Q03137); experiment: EphA4 ligand-binding antagonists – biochemical, colorimetric, mouse EphA4, primary screen (AID 689); type: functional
# Ephrin type-A receptor 4, sequence (Q03137 whole entry): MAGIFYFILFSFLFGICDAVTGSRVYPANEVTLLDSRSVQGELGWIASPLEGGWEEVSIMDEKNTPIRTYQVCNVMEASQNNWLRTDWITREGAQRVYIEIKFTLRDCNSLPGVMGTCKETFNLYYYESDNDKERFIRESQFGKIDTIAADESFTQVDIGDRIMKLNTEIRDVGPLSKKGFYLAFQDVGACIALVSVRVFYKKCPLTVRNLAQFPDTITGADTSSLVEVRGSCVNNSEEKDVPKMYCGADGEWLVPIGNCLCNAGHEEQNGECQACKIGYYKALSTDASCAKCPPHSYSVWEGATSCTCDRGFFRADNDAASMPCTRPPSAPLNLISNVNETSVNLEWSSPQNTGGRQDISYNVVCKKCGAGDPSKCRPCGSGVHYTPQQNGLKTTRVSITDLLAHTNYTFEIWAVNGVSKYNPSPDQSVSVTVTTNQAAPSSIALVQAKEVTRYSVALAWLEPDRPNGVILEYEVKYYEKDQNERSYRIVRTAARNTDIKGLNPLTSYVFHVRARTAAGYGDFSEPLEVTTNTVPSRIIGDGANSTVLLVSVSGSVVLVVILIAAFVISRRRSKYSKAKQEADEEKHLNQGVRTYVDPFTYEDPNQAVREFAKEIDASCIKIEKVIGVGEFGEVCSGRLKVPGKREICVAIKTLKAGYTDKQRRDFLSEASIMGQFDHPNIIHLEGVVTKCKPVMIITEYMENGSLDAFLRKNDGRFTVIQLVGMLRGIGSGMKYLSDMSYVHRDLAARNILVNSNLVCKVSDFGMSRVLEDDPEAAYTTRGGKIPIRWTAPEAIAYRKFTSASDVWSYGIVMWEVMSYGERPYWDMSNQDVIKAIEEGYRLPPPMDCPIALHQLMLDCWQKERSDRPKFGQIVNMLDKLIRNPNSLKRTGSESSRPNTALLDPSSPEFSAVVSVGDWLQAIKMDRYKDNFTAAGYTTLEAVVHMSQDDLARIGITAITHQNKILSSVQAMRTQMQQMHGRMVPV
# [3] = viability loss in Vero cells – cytotoxicity control for Vif-APOBEC3G degradation inhibitor project, dose response (AID 1117358); type: functional; settings: Vero
# [4] = target: Voltage-gated inwardly rectifying potassium channel KCNH2 (Homo sapiens, UniProt Q12809); experiment: concentration-dependent hERG rescue from blockers – cell-based, thallium flux, dose response (AID 2121); type: ADME
# [5] = target: Transitional endoplasmic reticulum ATPase (Homo sapiens, UniProt P55072, C522A); experiment: Luminescence counterscreen assay for p97 inhibitors: dose response biochemical high throughput screening assay to identify inhibitors of the C522A mutant p97 ATPase: synthesized compounds. [Related pubchem assays: 1481, 1517, 1551 ]
# Transitional endoplasmic reticulum ATPase (Homo sapiens, UniProt P55072, C522A), sequence (P55072 2-806 C522A limits assumed): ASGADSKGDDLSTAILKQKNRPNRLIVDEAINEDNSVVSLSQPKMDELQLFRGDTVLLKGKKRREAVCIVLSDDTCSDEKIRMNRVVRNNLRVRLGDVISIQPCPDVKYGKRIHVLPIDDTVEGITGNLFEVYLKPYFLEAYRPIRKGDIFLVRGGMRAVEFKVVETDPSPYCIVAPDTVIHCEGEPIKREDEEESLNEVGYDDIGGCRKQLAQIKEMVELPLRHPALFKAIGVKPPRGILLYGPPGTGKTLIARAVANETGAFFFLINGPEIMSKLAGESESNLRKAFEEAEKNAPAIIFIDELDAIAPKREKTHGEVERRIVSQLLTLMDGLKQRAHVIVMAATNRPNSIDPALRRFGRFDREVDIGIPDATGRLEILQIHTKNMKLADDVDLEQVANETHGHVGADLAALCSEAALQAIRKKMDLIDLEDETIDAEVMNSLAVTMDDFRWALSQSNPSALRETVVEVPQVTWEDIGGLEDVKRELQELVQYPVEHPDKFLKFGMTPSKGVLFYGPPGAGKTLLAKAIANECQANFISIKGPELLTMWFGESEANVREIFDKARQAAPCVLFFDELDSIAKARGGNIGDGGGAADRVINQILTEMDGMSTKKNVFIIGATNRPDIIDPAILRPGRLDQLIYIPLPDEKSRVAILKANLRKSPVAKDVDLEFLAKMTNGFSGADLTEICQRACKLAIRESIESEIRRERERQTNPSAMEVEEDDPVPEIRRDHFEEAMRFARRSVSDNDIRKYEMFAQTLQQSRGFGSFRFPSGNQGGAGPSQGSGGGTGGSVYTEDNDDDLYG
# [6] = target: Transitional endoplasmic reticulum ATPase (Homo sapiens, UniProt P55072); experiment: Luminescence dose response biochemical high throughput screening assay for inhibitors of the p97 ATPase: synthesized compounds. [Related pubchem assays: 1481, 1517 ]
# Transitional endoplasmic reticulum ATPase (Homo sapiens, UniProt P55072), sequence (P55072 whole entry): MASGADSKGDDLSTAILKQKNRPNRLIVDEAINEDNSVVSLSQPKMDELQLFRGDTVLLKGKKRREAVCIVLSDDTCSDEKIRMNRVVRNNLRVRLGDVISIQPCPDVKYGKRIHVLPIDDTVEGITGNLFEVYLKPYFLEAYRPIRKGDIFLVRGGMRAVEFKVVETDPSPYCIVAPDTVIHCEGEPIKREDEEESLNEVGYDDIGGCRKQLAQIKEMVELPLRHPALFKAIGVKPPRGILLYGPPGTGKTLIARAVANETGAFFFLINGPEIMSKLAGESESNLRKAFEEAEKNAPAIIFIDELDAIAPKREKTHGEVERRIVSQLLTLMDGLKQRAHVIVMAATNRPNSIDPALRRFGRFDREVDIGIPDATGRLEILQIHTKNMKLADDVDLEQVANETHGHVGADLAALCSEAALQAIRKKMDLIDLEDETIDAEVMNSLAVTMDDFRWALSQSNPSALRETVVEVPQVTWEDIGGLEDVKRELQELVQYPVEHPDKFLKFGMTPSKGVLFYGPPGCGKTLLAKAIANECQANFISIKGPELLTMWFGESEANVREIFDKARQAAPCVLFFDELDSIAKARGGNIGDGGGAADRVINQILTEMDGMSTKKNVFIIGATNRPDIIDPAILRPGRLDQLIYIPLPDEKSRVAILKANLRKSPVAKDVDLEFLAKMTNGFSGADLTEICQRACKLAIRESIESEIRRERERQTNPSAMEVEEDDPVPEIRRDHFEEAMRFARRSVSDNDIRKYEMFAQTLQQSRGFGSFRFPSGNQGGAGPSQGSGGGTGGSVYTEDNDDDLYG
# Vero = experiment: Vero cell viability after compound exposure – synthesized analogs, set II, cytotoxicity control for West Nile virus antiviral project, SAR follow-up (AID 2402); type: functional; settings: Chlorocebus sabaeus
# [7] = target: Metabotropic glutamate receptor 7 (Homo sapiens, UniProt Q14831); experiment: potentiation of glutamate EC20 at mGlu7 – cell-based, calcium mobilization, Galpha15, dose response (AID 743384); type: functional
# Phospholipase D1 = target: T1, Phospholipase D1 (Homo sapiens, UniProt Q13393); experiment: PLD1 Cellular Concentration Response Study.; type: functional
# T1 sequence (Q13393 whole entry): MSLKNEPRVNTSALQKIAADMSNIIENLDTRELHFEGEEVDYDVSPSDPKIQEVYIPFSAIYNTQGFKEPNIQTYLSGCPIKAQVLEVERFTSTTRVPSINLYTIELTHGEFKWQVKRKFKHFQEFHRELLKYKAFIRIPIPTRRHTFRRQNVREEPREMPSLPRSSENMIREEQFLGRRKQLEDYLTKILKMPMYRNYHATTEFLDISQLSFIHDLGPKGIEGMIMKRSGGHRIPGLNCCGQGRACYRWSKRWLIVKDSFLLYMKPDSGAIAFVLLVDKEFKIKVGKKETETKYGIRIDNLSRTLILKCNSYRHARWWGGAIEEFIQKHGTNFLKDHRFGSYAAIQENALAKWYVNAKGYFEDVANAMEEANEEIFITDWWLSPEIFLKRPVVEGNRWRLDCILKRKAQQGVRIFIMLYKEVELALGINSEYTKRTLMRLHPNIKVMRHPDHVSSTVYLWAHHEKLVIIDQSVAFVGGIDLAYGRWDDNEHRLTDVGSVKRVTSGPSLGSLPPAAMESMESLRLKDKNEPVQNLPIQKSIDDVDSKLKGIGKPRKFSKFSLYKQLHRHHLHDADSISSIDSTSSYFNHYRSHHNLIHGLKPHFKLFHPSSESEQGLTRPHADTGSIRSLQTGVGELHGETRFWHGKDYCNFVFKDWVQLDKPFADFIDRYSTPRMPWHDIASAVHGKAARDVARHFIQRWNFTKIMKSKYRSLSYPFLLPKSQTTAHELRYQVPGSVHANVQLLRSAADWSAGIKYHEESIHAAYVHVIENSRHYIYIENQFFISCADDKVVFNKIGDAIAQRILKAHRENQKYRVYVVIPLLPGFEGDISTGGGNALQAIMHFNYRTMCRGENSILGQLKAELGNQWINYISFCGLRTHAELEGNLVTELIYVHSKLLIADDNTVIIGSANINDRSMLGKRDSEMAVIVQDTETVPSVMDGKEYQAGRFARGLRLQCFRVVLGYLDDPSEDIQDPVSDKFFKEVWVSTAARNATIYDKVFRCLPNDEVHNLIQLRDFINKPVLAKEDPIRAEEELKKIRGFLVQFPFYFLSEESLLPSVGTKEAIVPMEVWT
# Phospholipase D2 = Phospholipase D2 (Homo sapiens, UniProt O14939); experiment: PLD2 Cellular Concentration Response Study.; type: functional
# Cytochrome P450 2C9 = Cytochrome P450 2C9 (Homo sapiens, UniProt P11712)
# [8] = Counterscreen for activators of the function of SWI/SNF related, matrix associated, actin dependent regulator of chromatin, subfamily a, member 2 (SMARCA2, BRM): Luminescence-based cell-based high throughput dose response assay to identify non-selective compounds using the VP16 reporter assay.; type: functional
# [9] = target: Photoreceptor-specific nuclear receptor (Homo sapiens, UniProt Q9Y5X4); type: functional, cell-based;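 note: CHO-S cells with Gal4-NCOR and VP16-NR2E3 two-hybrid luciferase reporter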
# [10] = Luminescence-based cell-based high throughput dose response assay to identify activators of the DAF-12 from the parasite S. stercoralis (ssDAF-12).; type: functional
# [11] = target: SWI/SNF-related matrix-associated actin-dependent regulator of chromatin subfamily A member 2 (Homo sapiens, UniProt P51531); experiment: Luminescence-based cell-based high throughput dose response assay to identify activators of the function of SWI/SNF related, matrix associated, actin dependent regulator of chromatin, subfamily a, member 2 (SMARCA2, BRM).; type: functional
# SWI/SNF-related matrix-associated actin-dependent regulator of chromatin subfamily A member 2, sequence (P51531 whole entry): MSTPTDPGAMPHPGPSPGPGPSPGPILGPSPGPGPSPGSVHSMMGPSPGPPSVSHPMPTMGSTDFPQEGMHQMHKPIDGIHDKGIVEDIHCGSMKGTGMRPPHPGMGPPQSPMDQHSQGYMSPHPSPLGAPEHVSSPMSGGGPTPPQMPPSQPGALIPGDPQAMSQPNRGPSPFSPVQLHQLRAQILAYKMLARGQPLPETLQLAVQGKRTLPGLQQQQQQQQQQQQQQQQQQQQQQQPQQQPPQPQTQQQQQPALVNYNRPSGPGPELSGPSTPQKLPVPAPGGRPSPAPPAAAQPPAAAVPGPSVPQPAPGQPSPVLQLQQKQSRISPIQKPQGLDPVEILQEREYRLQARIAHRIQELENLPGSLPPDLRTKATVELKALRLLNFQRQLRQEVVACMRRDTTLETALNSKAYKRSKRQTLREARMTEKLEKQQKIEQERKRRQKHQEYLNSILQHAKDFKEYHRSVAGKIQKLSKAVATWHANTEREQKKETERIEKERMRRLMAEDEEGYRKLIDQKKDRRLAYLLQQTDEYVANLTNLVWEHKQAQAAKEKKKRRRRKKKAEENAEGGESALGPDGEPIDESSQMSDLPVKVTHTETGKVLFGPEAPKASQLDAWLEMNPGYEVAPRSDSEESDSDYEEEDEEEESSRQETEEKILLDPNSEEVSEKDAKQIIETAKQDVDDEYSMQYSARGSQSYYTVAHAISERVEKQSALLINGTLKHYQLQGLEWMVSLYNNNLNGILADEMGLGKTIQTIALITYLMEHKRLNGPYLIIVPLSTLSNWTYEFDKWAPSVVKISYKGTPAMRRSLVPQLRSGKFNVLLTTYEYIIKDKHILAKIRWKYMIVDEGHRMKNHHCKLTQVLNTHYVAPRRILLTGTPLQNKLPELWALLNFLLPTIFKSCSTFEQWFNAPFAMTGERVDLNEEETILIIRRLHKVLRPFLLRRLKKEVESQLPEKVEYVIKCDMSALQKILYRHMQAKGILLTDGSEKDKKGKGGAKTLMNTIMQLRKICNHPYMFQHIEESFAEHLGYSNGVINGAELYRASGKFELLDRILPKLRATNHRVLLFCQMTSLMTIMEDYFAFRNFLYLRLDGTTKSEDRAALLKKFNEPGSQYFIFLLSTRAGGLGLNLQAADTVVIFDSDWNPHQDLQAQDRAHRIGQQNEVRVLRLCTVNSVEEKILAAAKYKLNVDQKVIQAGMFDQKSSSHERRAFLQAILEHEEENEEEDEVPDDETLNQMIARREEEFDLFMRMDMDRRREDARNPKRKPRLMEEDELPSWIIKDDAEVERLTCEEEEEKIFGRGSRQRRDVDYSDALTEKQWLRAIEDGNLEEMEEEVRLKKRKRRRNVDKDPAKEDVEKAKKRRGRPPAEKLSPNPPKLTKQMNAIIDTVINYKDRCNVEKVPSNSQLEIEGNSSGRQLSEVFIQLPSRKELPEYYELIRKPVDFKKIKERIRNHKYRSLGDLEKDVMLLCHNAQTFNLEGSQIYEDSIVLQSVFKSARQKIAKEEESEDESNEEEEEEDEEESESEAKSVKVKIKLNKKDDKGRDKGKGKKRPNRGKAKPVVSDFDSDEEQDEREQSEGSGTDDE
# Transthyretin = Transthyretin (Homo sapiens, UniProt P02766); experiment: Luminescence-based cell-based high throughput dose response assay to identify activators of Transthyretin (TTR) transcription.; type: functional
# NADPH oxidase 1 = NADPH oxidase 1 (Homo sapiens, UniProt Q9Y5S8); experiment: Late-stage luminescence-based cell-based dose response assay to identify inhibitors of NADPH oxidase 1 (NOX1): Synthesized analogs 3.; type: functional
# NADPH oxidase 1, sequence (Q9Y5S8 whole entry): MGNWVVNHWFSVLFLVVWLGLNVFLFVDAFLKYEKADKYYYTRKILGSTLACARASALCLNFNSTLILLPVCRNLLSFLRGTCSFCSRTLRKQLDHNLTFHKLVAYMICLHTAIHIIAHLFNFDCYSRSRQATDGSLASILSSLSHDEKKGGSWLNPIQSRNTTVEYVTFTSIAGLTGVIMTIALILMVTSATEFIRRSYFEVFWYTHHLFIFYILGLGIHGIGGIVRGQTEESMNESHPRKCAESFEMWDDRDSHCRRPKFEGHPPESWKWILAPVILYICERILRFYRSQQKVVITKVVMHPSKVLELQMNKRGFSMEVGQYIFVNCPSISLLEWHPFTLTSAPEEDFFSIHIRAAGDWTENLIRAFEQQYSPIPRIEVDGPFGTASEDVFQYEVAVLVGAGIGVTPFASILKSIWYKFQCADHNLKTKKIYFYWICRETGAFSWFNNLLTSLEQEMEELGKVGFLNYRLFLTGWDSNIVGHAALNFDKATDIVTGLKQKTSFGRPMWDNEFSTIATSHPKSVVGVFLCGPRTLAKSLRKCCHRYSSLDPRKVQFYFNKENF
# Streptokinase A = target: T2, Streptokinase A (Streptococcus pyogenes serotype M1, UniProt P10520); experiment: viability-normalized secreted streptokinase activity reduction – plasminogen activation absorbance, OD405, dose response (AID 1914); type: functional, Streptococcus pyogenes M1 GAS;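 note: secreted streptokinase activity via plasminogen activation per viability signal from cell pellet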
# T2 sequence (P10520 whole entry): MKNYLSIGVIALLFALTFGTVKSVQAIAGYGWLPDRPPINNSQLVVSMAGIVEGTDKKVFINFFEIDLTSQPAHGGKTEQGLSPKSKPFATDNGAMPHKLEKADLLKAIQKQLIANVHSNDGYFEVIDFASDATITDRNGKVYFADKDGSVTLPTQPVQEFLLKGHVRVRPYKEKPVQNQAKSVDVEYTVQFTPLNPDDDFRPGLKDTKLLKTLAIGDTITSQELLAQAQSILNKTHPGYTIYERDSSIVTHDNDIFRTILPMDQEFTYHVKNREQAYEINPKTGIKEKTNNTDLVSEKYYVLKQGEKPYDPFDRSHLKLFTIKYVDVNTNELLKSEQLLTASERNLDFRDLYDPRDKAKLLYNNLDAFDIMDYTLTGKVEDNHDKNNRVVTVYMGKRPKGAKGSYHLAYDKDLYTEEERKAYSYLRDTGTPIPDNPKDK
# [12] = target: Aryl hydrocarbon receptor (Homo sapiens, UniProt P35869); experiment: Luminescence-based cell-based high throughput dose response assay for activators of the Aryl Hydrocarbon Receptor (AHR). [Related pubchem assays: 2796 (Primary screen (AHR activators in singlicate)), 2845 (Confirmation screen (AHR activators in triplicate)), 434939 (Counterscreen (PXR activators in triplicate)), 2804 (Summary (AHR activators))]; type: ADME
# Streptococcus = experiment: GAS UMAA2166 growth inhibition – luminescence, BacTiterGlo, counter-screen for streptokinase expression inhibitor project, dose response (AID 1915); type: functional, organism-based;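 note: potency for reduction of bacterial viability or growth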
# [13] = tested on: Streptococcus sp. 'group A'; experiment: Streptococcus pyogenes SK(-)GAS viability under kanamycin – luminescence, BacTiterGlo, confirmation, counter-screen for streptokinase expression inhibitor project, dose response (AID 1900); type: functional, organism-based
# Bcl-2-related protein A1 [14] = target: T3, Bcl-2-related protein A1 (Mus musculus, UniProt Q07440); experiment: small-molecule antagonists of Bfl-1/BH3 interaction – biochemical, TR-FRET, mouse Bfl-1, confirmation (AID 621);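 note: TR-FRET binding of GST-Bfl-1 to FITC-labelled Bid peptide via terbium antibody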
# T3 sequence (Q07440 whole entry): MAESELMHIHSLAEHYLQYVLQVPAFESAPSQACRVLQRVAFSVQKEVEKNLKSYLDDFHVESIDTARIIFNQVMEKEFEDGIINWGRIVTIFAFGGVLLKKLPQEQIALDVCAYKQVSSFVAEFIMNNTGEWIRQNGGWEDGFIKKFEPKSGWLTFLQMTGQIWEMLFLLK
# [15] = target: T4, Zinc finger protein mex-5 (Caenorhabditis elegans, UniProt Q9XUB2); experiment: potency of MEX-5 RNA-binding blockers – biochemical, C. elegans, fluorescence polarization, dose response (AID 1960)
# T4 sequence (Q9XUB2 whole entry): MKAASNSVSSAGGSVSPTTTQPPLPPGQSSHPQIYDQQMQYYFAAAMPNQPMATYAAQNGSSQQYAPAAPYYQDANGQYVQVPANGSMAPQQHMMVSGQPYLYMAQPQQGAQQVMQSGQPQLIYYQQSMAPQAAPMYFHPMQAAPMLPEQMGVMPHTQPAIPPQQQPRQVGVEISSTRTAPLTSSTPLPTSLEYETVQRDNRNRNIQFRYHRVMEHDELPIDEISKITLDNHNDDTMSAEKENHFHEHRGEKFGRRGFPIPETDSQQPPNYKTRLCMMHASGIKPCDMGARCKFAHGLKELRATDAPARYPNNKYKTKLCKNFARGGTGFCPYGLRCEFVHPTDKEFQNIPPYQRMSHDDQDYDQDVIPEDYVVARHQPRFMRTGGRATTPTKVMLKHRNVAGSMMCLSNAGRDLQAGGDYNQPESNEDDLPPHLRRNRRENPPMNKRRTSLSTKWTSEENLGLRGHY
# Bcl-2-related protein A1 [16] = target: T3, Bcl-2-related protein A1; experiment: displacement of Bid BH3 peptide from Bfl-1 – biochemical, fluorescence polarization, FITC-Bid, mouse, primary screen (AID 432)
# [17] = target: T5, RNA-binding protein pos-1 (Caenorhabditis elegans, UniProt G5EF15); experiment: disruptors of C. elegans POS-1 RNA interaction – biochemical, fluorescence polarization, dose response (AID 1964);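 note: purified POS-1 fused to maltose binding protein made in E. coli; potency of compounds blocking POS-1 binding to fluorescent RNA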
# T5 sequence (G5EF15 whole entry): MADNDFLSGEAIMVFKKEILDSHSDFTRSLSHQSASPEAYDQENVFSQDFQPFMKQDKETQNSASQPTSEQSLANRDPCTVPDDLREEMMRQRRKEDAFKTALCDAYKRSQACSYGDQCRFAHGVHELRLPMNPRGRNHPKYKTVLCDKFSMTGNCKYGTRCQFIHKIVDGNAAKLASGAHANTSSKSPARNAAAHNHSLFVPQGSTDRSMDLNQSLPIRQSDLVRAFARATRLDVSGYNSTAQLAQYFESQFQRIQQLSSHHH
# cells = settings: HEK293
# Bcl-2-related protein A1 [18] = target: T3, Bcl-2-related protein A1; experiment: Bfl-1 binding inhibitors, SAR follow-up, biochemical, fluorescence polarization (AID 1070)
# [19] = target: Glyceraldehyde-3-phosphate dehydrogenase (Homo sapiens, UniProt P04406)
# Glyceraldehyde-3-phosphate dehydrogenase, sequence (P04406 whole entry): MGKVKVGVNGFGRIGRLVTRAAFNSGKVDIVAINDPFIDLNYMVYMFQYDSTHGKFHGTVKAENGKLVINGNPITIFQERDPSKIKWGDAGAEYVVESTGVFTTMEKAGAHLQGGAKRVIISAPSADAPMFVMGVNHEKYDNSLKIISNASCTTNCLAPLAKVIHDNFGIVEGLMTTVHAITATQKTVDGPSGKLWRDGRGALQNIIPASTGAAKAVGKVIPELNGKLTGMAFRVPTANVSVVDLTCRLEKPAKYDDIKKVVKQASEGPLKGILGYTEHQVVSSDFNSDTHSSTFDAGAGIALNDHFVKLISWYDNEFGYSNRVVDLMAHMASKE
# [20] = target: RNA-editing ligase 1, mitochondrial (Trypanosoma brucei brucei, UniProt P86926); experiment: inhibition of trypanosome RNA editing ligase – biochemical, fluorescence, Trypanosoma brucei, dose response (AID 1117295); type: functional
# [21] = target: Signal transducer and activator of transcription 1-alpha/beta (Homo sapiens, UniProt P42224); experiment: inhibition of STAT1 reporter activity – cell-based, NIH 3T3, luciferase reporter, dose response (AID 1396); type: functional
smiles,measurement,setting,value
Cc1c(NC(=O)CCN2C(=O)c3ccccc3C2=O)c(=O)n(-c2ccccc2)n1C,EC50,[1],> 112 µM (not active)
same,EC50,[2],> 112 µM (not active)
same,IC50,Ephrin type-A receptor 4,> 100 µM (not active)
CCOc1cc(C)c(Cl)cc1S(=O)(=O)NCc1ccco1,CC50,[3],27.7 µM (active)
CCc1nnc(NC(=O)CSc2nc(-c3ccccc3)cc(-c3ccc(OC)cc3)c2C#N)s1,EC50,[4],1.31 µM (active)
CCOc1ccc(-c2csc(Nc3ccc(C#N)cc3)n2)cc1,IC50,[5],> 50 µM (not active)
same,IC50,[6],> 50 µM (not active)
O=c1c2cc(I)ccc2nc2n1CCC2,CC50,Vero,> 100 µM (active)
COC(=O)c1ccc(-n2c(C)cc(C(=O)CSCc3ccc(OC)cc3)c2C)cc1,EC50,[7],1 µM (active)
O=C(NCCN1CCC2(CC1)C(=O)NCN2Cc1ccccc1Cl)c1ccc2ccccc2c1,IC50,Phospholipase D1,2.3 µM (active)
same,IC50,Phospholipase D2,0.11 µM (active)
Cc1cnc(NC(=O)CCCc2nc3ccccc3s2)s1,AC50,Cytochrome P450 2C9,5.62 µM (inconclusive)
same,EC50,[8],> 91.2 µM (inactive)
same,IC50,[9],0.563 µM (active)
same,IC50,[10],> 67.5 µM (inactive)
same,EC50,[11],> 91.2 µM (inactive)
same,EC50,Transthyretin,> 167 µM (inactive)
CN1c2ccc(Br)cc2Sc2cc(C(=O)c3ccccc3)ccc21,IC50,NADPH oxidase 1,> 20 µM (not active)
O=C(Nc1cccnc1)Nc1cc(Cl)cc(Cl)c1,EC50,Streptokinase A,> 150 µM (not active)
same,EC50,[12],> 1.13 µM (active)
same,EC50,Streptococcus,85.4 µM (active)
same,EC50,[13],7.83 µM (active)
CN1CC=C2C(C#N)=C(N)C(C#N)(C#N)[C@H](c3cccc(Cl)c3)C2C1 (some centres not stated),IC50,Bcl-2-related protein A1 [14],> 100 µM (not active)
same,EC50,[15],11.6 µM (active)
same,IC50,Bcl-2-related protein A1 [16],> 100 µM (not active)
same,EC50,[17],12.5 µM (active)
CC(C)Oc1cccc(OCCn2cnc3ccccc32)c1,AC50,cells,> 52 µM (inactive)
Cc1cccc(N2C(=O)C(Cl)=C(N3CCN(C)CC3)C2=O)c1,IC50,Bcl-2-related protein A1 [14],10.8 µM (active)
same,IC50,Bcl-2-related protein A1 [18],12.6 µM (active)
same,IC50,[19],> 100 µM (not active)
COC(=O)C1=C(C)N(Cc2cccc(C(F)(F)F)c2)C(NCc2ccc(OC)cc2)=NC1c1ccc(F)cc1 (configuration not stated),IC50,[20],> 96.6 µM (inactive)
Cc1ccc(C2=NN=C(c3ccncc3)c3ccc4ccccc4c3N2)cc1,IC50,[21],3.52 µM (active)
